From ChEMBL document CHEMBL5346946, “Targeting Arginine Methyltransferase PRMT5 for Cancer Therapy: Updated Progress and Novel Strategies” (J Med Chem, 2023)
Each block holds one molecule with its values, some of them ahead of it.

What was measured:
[1] = system: HCT-116; test: Anti-proliferative activity against wild type human HCT-116 cells assessed as cell growth inhibition incubated overnight by CellTiter-Glo luminescent assay; format: functional, cell-based
[2] = Anti-proliferative activity against human HCT116-MTAP null cells assessed as cell growth inhibition incubated overnight by CellTiter-Glo luminescent assay; format: functional, cell-based
[3] = biological target: T1, PRMT5/MEP50 complex (Homo sapiens, UniProt O14744); test: Binding affinity to PRMT5/MEP50 (unknown origin) using histone H4 peptide assessed as inhibition constant preincubated for 24 hrs followed by substrate addition and measured for 2 hrs in the presence of SAM by MTase-Glo Methyl Transferase Assay; format: protein-complex assay
[4] = Anti-proliferative activity against human HCT116-MTAP null cells assessed as cell growth inhibition incubated for 6 days by CellTiter-Glo Luminescent Cell Viability Assay; format: functional, cell-based; settings: 144 h
[5] = system: NCI-H1048; test: Antiproliferative activity against human NCI-H1048 cells assessed as cell growth inhibition incubated for 6 days by MTT assay; format: functional; settings: NCI-H1048, 144 h, time 6 day
[6] = biological target: PRMT5/MEP50 complex (Homo sapiens) (UniProt O14744+Q9BQA1); test: Binding affinity to Full-length human PRMT5/human MEP50 assessed as association constant by SPR analysis; format: protein-complex assay
[7] = biological target: T2, Protein arginine N-methyltransferase 5 (Homo sapiens, UniProt O14744); test: Inhibition of PRMT5 in human NCI-H1048 cells assessed as reduction in dimethylation of SmD1/3 at 1 nM incubated for 48 hrs relative to control; format: cell-based
[8] = biological target: T2, Protein arginine N-methyltransferase 5; test: Inhibition of PRMT5 in human NCI-H1048 cells assessed as reduction in dimethylation of SmD1/3 at 10 nM incubated for 48 hrs relative to control; format: cell-based
[9] = system: NCI-H1048; test: Antitumor activity against human NCI-H1048 cells xenografted in mouse assessed as tumor growth inhibition at 10 mg/kg, po administered daily for 28 days relative to control; format: functional; settings: NCI-H1048, 672 h, time 28 day, read-out: TGI
[10] = system: NCI-H1048; test: Antitumor activity against human NCI-H1048 cells xenografted in mouse assessed as tumor growth inhibition at 10 mg/kg, po administered daily for 28 days with two cycles of 7 days of treatment followed by 7 days without treatment relative to control; format: functional; settings: NCI-H1048, 672 h, time 28 day, read-out: TGI
[11] = biological target: T1, PRMT5/MEP50 complex; test: Binding affinity to N-terminal 6xHis-tagged full length human PRMT5/MEP50 expressed in sf21 cells using S-Adenosyl-L-methionine as substrate assessed as dissociation constant incubated for 25 to 60 mins by liquid scintillation analysis
[12] = biological target: T2, Protein arginine N-methyltransferase 5; test: Inhibition of PRMT5 in human A427 cells assessed as reduction in sDMA level incubated for 72 hrs by liquid scintillation analysis
[13] = system: A-427; test: Antitumor activity in human A-427 harboring RBM10 I348N mutant xenografted in mouse model assessed as tumor growth inhibition at 3 mg/kg administered once daily and measured after 44 days relative to control; format: functional; settings: A-427, 1056 h, time 44 day, read-out: TGI
[14] = system: A-427; test: Antitumor activity in human A-427 harboring RBM10 I348N mutant xenografted in mouse model assessed as tumor growth inhibition at 10 mg/kg administered once daily and measured after 44 days relative to control; format: functional; settings: A-427, 1056 h, time 44 day, read-out: TGI
[15] = system: A-427; test: Antitumor activity in human A-427 harboring RBM10 I348N mutant xenografted in mouse model assessed as tumor growth inhibition at 30 mg/kg administered once daily and measured after 44 days relative to control; format: functional; settings: A-427, 1056 h, time 44 day, read-out: TGI
[16] = In vivo inhibition of PMRT5 in mouse xenografted with human A427 cells assessed as reduction in sDMA level by ELISA (reference value: 66.4%); format: functional, A-427
[17] = Clearance in rat; format: ADME; settings: in vivo
[18] = Volume of distribution at steady state in rat at 2 mg/kg, iv; format: ADME, organism-based; settings: in vivo, read-out: Vdss
[19] = Oral bioavailability in rat at 10 mg/kg; format: ADME, organism-based; settings: in vivo
[20] = biological target: Voltage-gated inwardly rectifying potassium channel KCNH2 (Homo sapiens, UniProt Q12809); test: Inhibition of hERG potassium channel in human HEK293 cells by manual patch clamp assay; format: toxicity, cell-based
[21] = system: Z-138; test: Antiproliferative activity against human Z138 cells assessed as cell growth inhibition measured after 7 days by CCK-8 assay; format: functional, cell-based; settings: Z-138, 168 h
[22] = system: MDA-MB-468; test: Antiproliferative activity against human MDA-MB-468 assessed as cell growth inhibition measured after 7 days by CCK-8 assay; format: functional, cell-based; settings: MDA-MB-468, 168 h
[23] = system: NCI-H358; test: Antiproliferative activity against human NCI-H358 assessed as cell growth inhibition measured after 7 days by CCK-8 assay; format: functional, cell-based; settings: NCI-H358, 168 h
[24] = biological target: T2, Protein arginine N-methyltransferase 5; test: Inhibition of PRMT5 (unknown origin)
[25] = biological target: T2, Protein arginine N-methyltransferase 5; test: Inhibition of PRMT5 in human Z138 cells assessed as suppression of sDMA level; format: cell-based
[26] = system: Z-138; test: Antiproliferative activity against human Z138 cells; format: functional, cell-based
[27] = system: Z-138; test: Antitumor activity against human Z138 cells xenografted in mouse as tumor growth inhibition at 1.5 mg/kg, po administered twice daily relative to control; format: functional; settings: read-out: TGI
[28] = system: Z-138; test: Antitumor activity against human Z138 cells xenografted in mouse as tumor growth inhibition at 5 mg/kg, po administered twice daily relative to control; format: functional; settings: read-out: TGI
[29] = system: Z-138; test: Antitumor activity against human Z138 cells xenografted in mouse as tumor growth inhibition at 15 mg/kg, po administered twice daily relative to control; format: functional; settings: read-out: TGI
[30] = biological target: T2, Protein arginine N-methyltransferase 5; test: Inhibition of PRMT5 in human U-87 MG cells assessed as suppression of sDMA level incubated for 3 days by western blot analysis; format: cell-based
[31] = system: U-87 MG; test: Anti-proliferative activity against human U-87 MG cells assessed as cell growth inhibition incubated for 3 days by CCK-8 assay; format: functional, cell-based, U-87MG ATCC; settings: 72 h
[32] = biological target: T1, PRMT5/MEP50 complex; test: Inhibition of PRMT5/MEP50 (unknown origin) using histone H4 peptide as substrate preincubated for 30 mins followed by substrate addition and measured for 60 mins by AlphaScreen analysis; format: protein-complex assay
[33] = system: Z-138; test: Anti-proliferative activity against human Z138 cells assessed as cell growth inhibition incubated for 8 days by Cell-Titer Glo assay; format: functional, cell-based; settings: Z-138, 192 h
[34] = biological target: T2, Protein arginine N-methyltransferase 5; test: Inhibition of PRMT5 in human Z138 cells assessed as decrease in sDMA modification incubated for 2 days by fluorescence based assay; format: cell-based
[35] = Oral bioavailability in CB17-SCID mouse at 10 mg/kg incubated for 24 hrs by LC-MS/MS analysis; format: ADME, organism-based; settings: in vivo
[36] = system: Z-138; test: Antitumor activity against human Z138 cells xenografted in CB17-SCID mouse at 50 mg/kg, po QD for 3 weeks relative to control; format: functional; settings: Z-138, 504 h, read-out: TGI

T1 sequence (O14744 whole entry): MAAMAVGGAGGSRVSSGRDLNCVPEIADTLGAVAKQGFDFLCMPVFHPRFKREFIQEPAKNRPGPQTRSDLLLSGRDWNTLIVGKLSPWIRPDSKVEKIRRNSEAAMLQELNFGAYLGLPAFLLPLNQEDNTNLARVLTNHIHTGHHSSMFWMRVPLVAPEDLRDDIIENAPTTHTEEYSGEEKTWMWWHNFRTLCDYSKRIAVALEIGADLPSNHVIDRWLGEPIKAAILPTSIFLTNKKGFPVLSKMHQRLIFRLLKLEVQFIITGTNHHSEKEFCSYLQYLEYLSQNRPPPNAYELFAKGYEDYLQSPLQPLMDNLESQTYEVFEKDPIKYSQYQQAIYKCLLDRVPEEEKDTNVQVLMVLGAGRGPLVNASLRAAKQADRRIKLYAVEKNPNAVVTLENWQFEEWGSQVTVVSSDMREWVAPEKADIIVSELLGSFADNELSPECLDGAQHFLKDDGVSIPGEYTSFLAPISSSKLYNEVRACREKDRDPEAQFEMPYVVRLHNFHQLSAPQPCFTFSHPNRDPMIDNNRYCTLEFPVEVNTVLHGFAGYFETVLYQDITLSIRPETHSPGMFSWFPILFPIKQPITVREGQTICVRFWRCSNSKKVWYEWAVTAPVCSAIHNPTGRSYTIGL
T1 sequence (Q9BQA1 whole entry, further chain): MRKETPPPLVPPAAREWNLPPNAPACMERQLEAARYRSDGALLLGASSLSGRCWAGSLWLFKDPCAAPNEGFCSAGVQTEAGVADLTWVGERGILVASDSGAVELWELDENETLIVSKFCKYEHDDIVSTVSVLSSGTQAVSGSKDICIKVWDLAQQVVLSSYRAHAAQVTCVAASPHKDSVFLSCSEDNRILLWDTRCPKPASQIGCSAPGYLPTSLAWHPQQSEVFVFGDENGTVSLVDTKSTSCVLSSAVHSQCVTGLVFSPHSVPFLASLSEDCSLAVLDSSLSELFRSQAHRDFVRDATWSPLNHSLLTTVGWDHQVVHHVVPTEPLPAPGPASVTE
T2 sequence (O14744 whole entry): as the sequence (O14744 whole entry) above
Chain of Voltage-gated inwardly rectifying potassium channel KCNH2 (Q12809 whole entry): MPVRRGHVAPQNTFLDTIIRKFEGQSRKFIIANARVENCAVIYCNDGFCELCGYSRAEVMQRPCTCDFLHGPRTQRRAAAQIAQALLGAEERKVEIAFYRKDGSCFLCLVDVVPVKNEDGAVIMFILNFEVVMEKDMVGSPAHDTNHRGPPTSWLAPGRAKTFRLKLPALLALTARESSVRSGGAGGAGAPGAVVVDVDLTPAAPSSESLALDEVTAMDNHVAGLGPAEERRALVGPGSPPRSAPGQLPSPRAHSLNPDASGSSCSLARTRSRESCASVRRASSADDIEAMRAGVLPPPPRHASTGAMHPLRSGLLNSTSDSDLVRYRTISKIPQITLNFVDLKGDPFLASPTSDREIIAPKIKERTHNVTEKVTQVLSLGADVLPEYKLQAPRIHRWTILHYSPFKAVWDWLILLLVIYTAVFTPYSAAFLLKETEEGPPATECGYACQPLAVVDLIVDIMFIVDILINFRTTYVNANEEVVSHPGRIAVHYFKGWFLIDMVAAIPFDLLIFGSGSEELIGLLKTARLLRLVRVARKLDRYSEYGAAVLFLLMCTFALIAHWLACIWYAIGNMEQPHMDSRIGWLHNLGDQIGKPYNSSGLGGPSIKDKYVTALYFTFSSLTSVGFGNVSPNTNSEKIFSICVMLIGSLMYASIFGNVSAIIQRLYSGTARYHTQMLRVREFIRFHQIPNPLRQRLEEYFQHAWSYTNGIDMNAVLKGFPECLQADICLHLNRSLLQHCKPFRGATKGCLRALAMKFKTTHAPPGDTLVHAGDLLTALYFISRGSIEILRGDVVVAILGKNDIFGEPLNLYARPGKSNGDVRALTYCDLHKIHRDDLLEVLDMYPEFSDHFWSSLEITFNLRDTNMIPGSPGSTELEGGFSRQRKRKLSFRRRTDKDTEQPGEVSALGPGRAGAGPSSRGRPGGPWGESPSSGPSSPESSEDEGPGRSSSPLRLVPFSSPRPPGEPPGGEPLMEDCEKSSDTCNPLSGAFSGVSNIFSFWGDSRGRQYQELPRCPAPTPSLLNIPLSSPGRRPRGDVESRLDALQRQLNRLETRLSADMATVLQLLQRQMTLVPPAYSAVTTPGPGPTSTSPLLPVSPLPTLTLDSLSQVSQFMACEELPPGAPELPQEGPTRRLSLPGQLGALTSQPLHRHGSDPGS

SMILES: Cc1cc2cc(C(=O)N(Cc3ccc(C(F)(F)F)cn3)[C@@H]3CCCc4[nH]ncc43)ccc2nc1N
IC50 [1]: 142 nM
IC50 [2]: 10 nM
Ki [3]: 0.05 nM
IC50 [4]: 5 nM

SMILES: Cc1ncnc2c1ccn2[C@@H]1C[C@H](Oc2cc(C(F)F)c(F)c3c2CNCC3)[C@@H](O)[C@H]1O
Kd [11]: 0.0114 nM
IC50 [12]: 1.1 nM
inhibition in vivo at 3 mg/kg [13]: 52.1%
inhibition in vivo at 10 mg/kg [14]: 74.9%
inhibition in vivo at 30 mg/kg [15]: 101%
inhibition (INH) [16]: 79.8%
clearance [17]: 40 mL/min/kg
Vd [18]: 3.8 L/kg
bioavailability [19]: 40%

SMILES: CC(=O)N1CC2(CC(Nc3cc4c(cn3)C3(CC3)CN(C[C@H](O)CN3CCc5ccccc5C3)C4=O)C2)C1
IC50 [20]: 15.1 µM
IC50 [21]: 2.2 nM
IC50 [22]: 7.4 nM
IC50 [23]: 5 nM

SMILES: CCN1CCN(C[C@@H](O)[C@@H]2Cc3ccccc3CN2)C(=O)c2ccc(C(=O)N3CCC4(CC3)CC(OC)C4)cc21
IC50 [24]: 4.2 nM
IC50 [25]: 1.4 nM
IC50 [26]: 2.2 nM
inhibition in vivo at 1.5 mg/kg [27]: 36%
inhibition in vivo at 5 mg/kg [28]: 47.8%
inhibition in vivo at 15 mg/kg [29]: 112%

SMILES: CC(=O)N1CCC(Nc2cc3c(cn2)C2(CC2)CN(C[C@H](O)CN2CCc4ccccc4C2)C3=O)CC1
IC50 [20]: 5.2 µM

SMILES: CC1(C)CN(C[C@@H](O)[C@@H]2Cc3ccccc3CN2)C(=O)c2ccc(C(=O)N3CCC4(CC3)CC4)cc21
IC50 [32]: 2.8 nM
IC50 [33]: 0.3 nM
IC50 [34]: 0.8 nM
bioavailability [35]: 46.2%
inhibition in vivo at 50 mg/kg [36]: 93.2%

More lines, main results first:

GI50 [5]: 1.3 nM
Ka [6]: 6.3 10^5/M/s
inhibition [7]: > 50%
inhibition [8]: 80%
SMILES: Nc1nc2cc(CC[C@H]3C[C@@H](n4ccc5c(N)ncnc54)[C@H](O)[C@@H]3O)ccc2cc1Br [ONAMETOSTAT]
inhibition in vivo at 10 mg/kg [9]: 77%
inhibition in vivo at 10 mg/kg [10]: 67%

Kd [11]: 0.241 nM
SMILES: Nc1ncnc2c1ccn2[C@@H]1O[C@H]([C@H](O)c2ccc(Cl)c(F)c2)[C@@H](O)[C@H]1O

IC50 [30]: 120 nM
SMILES: Nc1ncnc2c1ccn2[C@@H]1O[C@H]([C@@H]2OCc3cc(Cl)ccc32)[C@@H](O)[C@H]1O

IC50 [31]: 2.6 nM
SMILES: Nc1ncnc2c1ccn2[C@@H]1O[C@H]([C@@H]2OCCc3cc(Cl)ccc32)[C@@H](O)[C@H]1O
